Among the data in paper PMC12785651, “The Role of Active Site Hydrophobic Interactions in Facilitating Catalysis in Human Terminal Deoxynucleotidyl Transferase” (International Journal of Molecular Sciences, 2025) are Kd values, retold here.

Series [1] addresses T1, TdT (human terminal deoxynucleotidyl transferase, hTdT) (Homo sapiens, UniProt P04053, L397A).
T1 construct: gene DNTT; expression per earlier publication
Briefly: microscale thermophoresis (Monolith NT.[…]). It counts as binding. To be noted: 50 mM Tris-HCl pH 8.0, 5 mM MnCl2, 37 °C; no primer listed; Hill coefficient fixed at 2; labelled compound (fluorescein); read-out: Kd, μM / Flu-dUTP. In general terms: In MST a laser heats a spot of the sample, and binding alters the fluorescence response.

For series [2], the target named is T2, TdT (human terminal deoxynucleotidyl transferase, hTdT) (Homo sapiens, UniProt P04053, F400A).
T2 construct: gene DNTT; expression per earlier publication
Nature of the series: microscale thermophoresis (Monolith NT.[…]). The format is binding. To be noted: 50 mM Tris-HCl pH 8.0, 5 mM MnCl2, 37 °C; no primer listed; Hill coefficient fixed at 2; labelled compound (fluorescein); read-out: Kd, μM / Flu-dUTP.

In series [3] the target is T3, TdT (human terminal deoxynucleotidyl transferase, hTdT) (Homo sapiens, UniProt P04053, F404W).
T3 construct: gene DNTT; expression per earlier publication
Nature of the series: microscale thermophoresis (Monolith NT.[…]). The format is binding. To be noted: 50 mM Tris-HCl pH 8.0, 5 mM MnCl2, 37 °C; no primer listed; Hill coefficient fixed at 2; labelled compound (fluorescein); read-out: Kd, μM / Flu-dUTP.

For series [4], the target named is T4, TdT (human terminal deoxynucleotidyl transferase, hTdT) (Homo sapiens, UniProt P04053).
T4 construct: gene DNTT; expression per earlier publication
Briefly: microscale thermophoresis (Monolith NT.[…]). It counts as binding. To be noted: 50 mM Tris-HCl pH 8.0, 5 mM MnCl2, 37 °C; no primer listed; Hill coefficient fixed at 2; labelled compound (fluorescein); read-out: Kd, μM / Flu-dUTP.

Series [5] deals with T5, TdT (human terminal deoxynucleotidyl transferase, hTdT) (Homo sapiens, UniProt P04053, F404A).
T5 construct: gene DNTT; expression per earlier publication
Briefly: microscale thermophoresis (Monolith NT.[…]). It counts as binding. Conditions: 50 mM Tris-HCl pH 8.0, 5 mM MnCl2, 37 °C; no primer listed; Hill coefficient fixed at 2; labelled compound (fluorescein); read-out: Kd, μM / Flu-dUTP.

In the next series the target is TdT F404A (human, UniProt P04053 1-509, F404A). Briefly: EMSA; 5 mM MgCl2; Hill h fixed at 2; EMSA: 50 mM Tris-HCl pH 8.0, 5 mM MgCl2, 7% glycerol; 0.5 uM FAM-M44, 0.06-10 uM protein; 10 min at 37 C then 5 min at 0 C; gel at 4 C. To be noted: protein: recombinant; chain copies: 2; label: 5'-FAM; single strand. For orientation: Mobility shift assays separate free from complexed probe on a gel.

The target in another series is TdT F404W (human, UniProt P04053 1-509, F404W). Described as above. Conditions: protein: recombinant; chain copies: 2; label: 5'-FAM; single strand.
The target in a further series is TdT F400A (human, UniProt P04053 1-509, F400A). Described as above. To be noted: protein: recombinant; chain copies: 2; label: 5'-FAM; single strand.
A further series addresses TdT WT (human, UniProt P04053 1-509). The series is described as above. To be noted: protein: recombinant; chain copies: 2; label: 5'-FAM; single strand.
The target of another series is TdT L397A (human, UniProt P04053 1-509, L397A). Described as above. To be noted: protein: recombinant; chain copies: 2; label: 5'-FAM; single strand.
Chain of TdT L397A (P04053 whole entry L397A): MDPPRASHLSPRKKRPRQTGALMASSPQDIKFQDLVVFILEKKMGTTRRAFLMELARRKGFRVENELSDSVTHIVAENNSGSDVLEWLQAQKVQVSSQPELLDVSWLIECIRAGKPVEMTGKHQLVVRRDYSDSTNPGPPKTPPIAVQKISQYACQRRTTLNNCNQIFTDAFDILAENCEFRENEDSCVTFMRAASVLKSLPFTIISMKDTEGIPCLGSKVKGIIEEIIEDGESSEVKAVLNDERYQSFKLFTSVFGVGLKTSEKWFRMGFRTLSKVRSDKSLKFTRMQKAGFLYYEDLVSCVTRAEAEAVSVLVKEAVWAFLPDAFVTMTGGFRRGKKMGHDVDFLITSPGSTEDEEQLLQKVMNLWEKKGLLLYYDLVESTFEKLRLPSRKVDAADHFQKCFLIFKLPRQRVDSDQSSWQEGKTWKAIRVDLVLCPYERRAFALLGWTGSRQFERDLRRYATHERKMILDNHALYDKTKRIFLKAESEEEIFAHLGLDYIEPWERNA

T5 sequence (P04053 whole entry F404A): as the sequence (P04053 whole entry L397A) above, with A397L, F404A counted along it
Chain of TdT F404A (P04053 whole entry F404A): as the sequence (P04053 whole entry L397A) above, with A397L, F404A counted along it
T3 sequence (P04053 whole entry F404W): as the sequence (P04053 whole entry L397A) above, with A397L, F404W counted along it
Chain of TdT F404W (P04053 whole entry F404W): as the sequence (P04053 whole entry L397A) above, with A397L, F404W counted along it
Chain of TdT F400A (P04053 whole entry F400A): as the sequence (P04053 whole entry L397A) above, with A397L, F400A counted along it
T2 sequence (P04053 whole entry F400A): as the sequence (P04053 whole entry L397A) above, with A397L, F400A counted along it
T1 sequence (P04053 whole entry L397A): as the sequence (P04053 whole entry L397A) above
Chain of TdT WT (P04053 whole entry): as the sequence (P04053 whole entry L397A) above, with A397L counted along it
T4 sequence (P04053 whole entry): as the sequence (P04053 whole entry L397A) above, with A397L counted along it

Flu-dUTP: the Kd in series [1] was found to be 1.5 ± 0.2 µM; in series [2], 1.1 ± 0.1 µM; in series [3] it was 1 ± 0.1 µM; in series [4], 0.9 ± 0.1 µM; in series [5] it was 1.5 ± 0.2 µM.

B1: FAM-M44 (ssDNA)
DNA: ATGCTATGGATTGATGTGACTAAGGTTGGAATGATGTGAAGAGA
As to B1, the Kd with TdT F404A was 1100 ± 90 nM; with TdT F404W, 1000 ± 100 nM; with TdT F400A it was 980 ± 70 nM; with TdT WT, 880 ± 80 nM; with TdT L397A it was 970 ± 80 nM.
